The results in this text go back to PubChem BioAssay AID330 (DTP/NCI, 2004).

Where “and” joins values, the source holds several entries; their conditions need not be identical. Equal values may be shown once. Toxic doses and inconclusive results are not listed.

The assay has as its system P388 leukemia ip, CD2F1 mice, survival T/C. Description: NCI In Vivo Anticancer Drug Screen. Data for tumor model P388 Leukemia (intraperitoneal) in CD2F1 (CDF1) mice. Particulars: endpoint: median survival time, higher = longer survival. In outline: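 Mice carrying the transplanted tumor received test compound or vehicle. Survival was recorded in each group, and the value is the treated-group measurement divided by that of the vehicle-treated control group.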

Setting [1] is: dose: 6.25 mg/kg/injection, schedule: Q01DX009 (ip), vehicle: saline with Tween-80.
The mark [2] stands for this setting: dose: 12.5 mg/kg/injection, schedule: Q01DX009 (ip), vehicle: saline with Tween-80.
[3] abbreviates: dose: 25.0 mg/kg/injection, schedule: Q01DX009 (ip), vehicle: saline with Tween-80.
Where [4] appears, read: dose: 50.0 mg/kg/injection, schedule: Q01DX009 (ip), vehicle: saline with Tween-80.
The mark [5] stands for this setting: dose: 50.0 mg/kg/injection, schedule: Q01DX005 (ip), vehicle: Klucel (hydroxypropylcellulose) (HPC).
[6] abbreviates: dose: 100.0 mg/kg/injection, schedule: Q01DX005 (ip), vehicle: Klucel (hydroxypropylcellulose) (HPC).
Setting [7] is: dose: 200.0 mg/kg/injection, schedule: Q01DX005 (ip), vehicle: Klucel (hydroxypropylcellulose) (HPC).
[8] abbreviates: dose: 60.0 mg/kg/injection, schedule: Q01DX005 (ip), vehicle: saline with Tween-80.
Setting [9] is: dose: 120.0 mg/kg/injection, schedule: Q01DX005 (ip), vehicle: saline with Tween-80.
[10] abbreviates: dose: 240.0 mg/kg/injection, schedule: Q01DX005 (ip), vehicle: saline with Tween-80.

On to `CC1=NN(C(=O)CC(=O)Nc2ccc(C(=O)O)cc2)C(=O)C1N=Nc1ccc(I)cc1` (stereo not drawn), for which the T/C is, setting by setting: (dose: 100.0 mg/kg/injection, schedule: Q04DX002 (ip), vehicle: saline with Tween-80) 96 % of control; (dose: 200.0 mg/kg/injection, schedule: Q04DX002 (ip), vehicle: saline with Tween-80) 98 % of control; (dose: 400.0 mg/kg/injection, schedule: Q04DX002 (ip), vehicle: saline with Tween-80) 120 % of control.

Take `COC(=O)Nc1nc2ccc(C(=O)c3ccccc3)cc2[nH]1`: the T/C (dose: 2.0 mg/kg/injection, schedule: Q04DX003 (ip), vehicle: saline with Tween-80) is 100 % of control; the T/C (dose: 4.0 mg/kg/injection, schedule: Q04DX003 (ip), vehicle: saline with Tween-80) was 100 % of control; the T/C (dose: 8.0 mg/kg/injection, schedule: Q04DX003 (ip), vehicle: saline with Tween-80) was 113 % of control; the T/C (dose: 16.0 mg/kg/injection, schedule: Q04DX003 (ip), vehicle: saline with Tween-80) was 118 % of control; the T/C (dose: 32.0 mg/kg/injection, schedule: Q04DX003 (ip), vehicle: saline with Tween-80) is 202 % of control; the T/C (dose: 64.0 mg/kg/injection, schedule: Q04DX003 (ip), vehicle: saline with Tween-80) was 190 % of control. For the same compound, the T/C runs as follows: (dose: 80.0 mg/kg/injection, schedule: Q04DX003 (ip), vehicle: other) 192 % of control; (dose: 80.0 mg/kg/injection, schedule: Q04DX003 (oral), vehicle: other) 112 % of control and 113 % of control; (dose: 80.0 mg/kg/injection, schedule: Q04DX003 (oral), vehicle: saline) 98 % of control; (dose: 320.0 mg/kg/injection, schedule: Q04DX003 (oral), vehicle: saline) 115 % of control; (dose: 1280.0 mg/kg/injection, schedule: Q04DX003 (oral), vehicle: saline) 165 % of control.

Turning to `COc1ccc2c(c1)[C@@]13CCCC[C@H]1[C@H](N(C)CC3)C21CC1`, the T/C reads like this: (dose: 100.0 mg/kg/injection, schedule: Q01DX001 (ip), vehicle: Klucel (hydroxypropylcellulose) (HPC)) 97 % of control; (dose: 200.0 mg/kg/injection, schedule: Q01DX001 (ip), vehicle: Klucel (hydroxypropylcellulose) (HPC)) 102 % of control.

For the compound `Cc1cccc(Nc2ccccc2C(=O)O)c1C`, the T/C runs as follows: under setting [1], 103 % of control; under setting [2], 98 % of control; under setting [3], 111 % of control; under setting [4], 101 % of control.

As to `Nc1ccccc1N=C(CC(=O)c1ccccc1)C(F)(F)F`, the T/C was 99 % of control (dose: 100.0 mg/kg/injection, schedule: Q04DX002 (ip), vehicle: saline); 101 % of control (dose: 200.0 mg/kg/injection, schedule: Q04DX002 (ip), vehicle: saline); 97 % of control (dose: 400.0 mg/kg/injection, schedule: Q04DX002 (ip), vehicle: saline).

As for `COc1ccc(N/N=C(/c2ccccc2)c2noc(-c3ccccc3)n2)cc1`, the T/C reads like this: under setting [5], 101 % of control; under setting [6], 94 % of control; under setting [7], 93 % of control.

As to `COC(=O)c1cc2c(cc1/C=C/C=O)OCO2`, the T/C is 100 % of control under setting [8], 109 % of control under setting [9] and 109 % of control under setting [10].

As to `CCOC(=O)C(C(=O)OCC)=C1c2c(ccc(OC)c2OC)C=C2c3cc4c(cc3CCN21)OCO4`, the T/C (dose: 0.63 mg/kg/injection, schedule: Q01DX009 (ip), vehicle: water) is 97 % of control; the T/C (dose: 1.25 mg/kg/injection, schedule: Q01DX009 (ip), vehicle: water) is 100 % of control; the T/C (dose: 2.5 mg/kg/injection, schedule: Q01DX009 (ip), vehicle: water) is 106 % of control; the T/C (dose: 5.0 mg/kg/injection, schedule: Q01DX009 (ip), vehicle: water) is 117 % of control; the T/C (dose: 10.0 mg/kg/injection, schedule: Q01DX009 (ip), vehicle: water) was 124 % of control.

`COc1c(Br)c2c(c([N+](=O)[O-])c1OC)C(=O)OC2C1c2c(cc3c(c2OC)OCO3)CCN1C` (stereo not drawn): the T/C by setting is: (dose: 25.0 mg/kg/injection, schedule: Q01DX005 (ip), vehicle: Klucel (hydroxypropylcellulose) (HPC)) 91 % of control; under setting [5], 104 % of control; under setting [6], 104 % of control; under setting [7], 103 % of control.

For the compound `CCCCCCCCCSc1nc2ccc(NC(=O)/C=C/C(=O)O)cc2s1`, the T/C by setting is: (dose: 12.5 mg/kg/injection, schedule: Q01DX009 (ip), vehicle: Klucel (hydroxypropylcellulose) (HPC)) 97 % of control; (dose: 25.0 mg/kg/injection, schedule: Q01DX009 (ip), vehicle: Klucel (hydroxypropylcellulose) (HPC)) 107 % of control; (dose: 50.0 mg/kg/injection, schedule: Q01DX009 (ip), vehicle: Klucel (hydroxypropylcellulose) (HPC)) 106 % of control and 107 % of control; (dose: 100.0 mg/kg/injection, schedule: Q01DX009 (ip), vehicle: Klucel (hydroxypropylcellulose) (HPC)) 113 % of control.

`COc1ccc(S(=O)(=O)c2coc3ccc(C)cc3c2=O)cc1`: the T/C under setting [8] was 100 % of control, the T/C under setting [9] was 96 % of control and the T/C under setting [10] was 95 % of control.

In the case of `COc1ccc(C(c2cc(C(C)(C)C)c(O)c(C(C)(C)C)c2)n2ccnc2)cc1` (stereo not drawn), the T/C was 105 % of control (dose: 50.0 mg/kg/injection, schedule: Q01DX005 (ip), vehicle: distilled water + alcohol); 103 % of control (dose: 100.0 mg/kg/injection, schedule: Q01DX005 (ip), vehicle: distilled water + alcohol); 99 % of control (dose: 200.0 mg/kg/injection, schedule: Q01DX005 (ip), vehicle: distilled water + alcohol).

Consider `COC(=O)c1c[nH]c(=O)[nH]c1=O`, for which the T/C under setting [8] was 94 % of control, the T/C under setting [9] is 105 % of control and the T/C under setting [10] was 112 % of control.

As for `CCOc1ccc(C(CC)c2cc3c(cc2OCC)OCO3)cc1` (stereo not drawn), the T/C is 100 % of control under setting [8], 111 % of control under setting [9] and 110 % of control under setting [10].

Turning to `CCCCCCCCCc1ccc(OCCOCCOCCOCCOCCOCCOCCOCCOCCOC(C)N2CCCC2=O)cc1` (stereo not drawn), the T/C is 110 % of control under setting [1], 115 % of control under setting [2] and 120 % of control under setting [3].

`Cc1ccc(NC(=S)NC2C(=O)Nc3ccccc32)cc1` (stereo not drawn): the T/C (dose: 100.0 mg/kg/injection, schedule: Q01DX001 (ip), vehicle: saline with Tween-80) was 92 % of control; the T/C (dose: 200.0 mg/kg/injection, schedule: Q01DX001 (ip), vehicle: saline with Tween-80) is 93 % of control; the T/C (dose: 400.0 mg/kg/injection, schedule: Q01DX001 (ip), vehicle: saline with Tween-80) was 87 % of control.

Turning to `CCCCCCCCCCCCCCCC1=NCCN1`, the T/C is 105 % of control (dose: 50.0 mg/kg/injection, schedule: Q01DX005 (ip), vehicle: saline with Tween-80) and 107 % of control (dose: 100.0 mg/kg/injection, schedule: Q01DX005 (ip), vehicle: saline with Tween-80).

Consider `CC(=Nc1ccc(F)cc1)C1C(=O)c2ccccc2C1=O`, for which the T/C is 100 % of control under setting [5], 100 % of control under setting [6] and 100 % of control under setting [7].

As to `CC(C)(COS(C)(=O)=O)COS(C)(=O)=O`, the T/C was 107 % of control (dose: 50.0 mg/kg/injection, schedule: Q01DX009 (ip), vehicle: saline); 96 % of control (dose: 50.0 mg/kg/injection, schedule: Q01DX009 (ip), vehicle: suspension in saline); 91 % of control (dose: 100.0 mg/kg/injection, schedule: Q01DX009 (ip), vehicle: saline); 101 % of control and 91 % of control (dose: 100.0 mg/kg/injection, schedule: Q01DX009 (ip), vehicle: suspension in saline); 110 % of control (dose: 200.0 mg/kg/injection, schedule: Q01DX009 (ip), vehicle: saline); 104 % of control and 92 % of control (dose: 200.0 mg/kg/injection, schedule: Q01DX009 (ip), vehicle: suspension in saline). In addition, the T/C (dose: 400.0 mg/kg/injection, schedule: Q01DX009 (ip), vehicle: suspension in saline) was 112 % of control and 90 % of control.

Take `CN1NC(c2ccccc2)=C(C#N)C(=O)CC1c1ccccc1` (stereo not drawn): the T/C runs as follows: under setting [8], 96 % of control; under setting [9], 95 % of control; under setting [10], 104 % of control.

For `CCCCOC(=O)NCCCl`, the T/C under setting [4] is 96 % of control; the T/C (dose: 100.0 mg/kg/injection, schedule: Q01DX009 (ip), vehicle: saline with Tween-80) is 97 % of control; the T/C (dose: 200.0 mg/kg/injection, schedule: Q01DX009 (ip), vehicle: saline with Tween-80) was 102 % of control.
